Results taken from patent publication US10981932B2, “Macrocyclic indole derivatives” (Bayer Aktiengesellschaft, priority 2016, dated 2021).
Values joined by “and” are separate entries in the source; they are usually repeats but may differ in a detail not shown here. Equal values may be shown once. Where a name gives a salt, the structure may show the parent alone. Read-outs that look alike come from different tables or passages of the source.

Key:
SUDHL5 [1] = experiment: Anti-proliferative effect (CellTiter-Glo, 72 h), SUDHL5; type: cell-based; settings: SUDHL5 cells, antiproliferation, 72 h incubation, median, read-out: Antiproli SUDHL5 [M] (median)
Outline: (§1)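 Viable cells quantified with CellTiter-Glo after 72 h at 37 °C; rim wells excluded; day 0 plate as baseline.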

OPM2 = experiment: Anti-proliferative effect (CellTiter-Glo, 72 h), OPM2; type: cell-based; settings: OPM2 cells, median, read-out: IC50 antiproliferation assay OPM2 [M] (median)
Procedure: Assessment of the Anti-Proliferative Effect of Compounds in Different Cell Lines
The impact of compounds on the proliferation of different cell lines was assessed using the CellTiter-Glo® Luminescent Cell Viability reagent from Promega (G7573). Of note, SUDHL10 and SUDHL5 (DLBCL), NCI-H929 (Multiple Myeloma), A2780 (ovarian carcinoma) as well as MV-4-11(AML) cells are sensitive to MCL-1 inhibition.
In parallel, cells were plated in a reference (day 0) plate for time zero determination.
Rim wells were excluded. The cells were incubated for 72 h hours in a humidified incubator at 37° C. The day 0 plate was measured by adding 30 μl/well of CTG solution (CellTiter-Glo® Luminescent Cell Viability reagent, Promega G7573) to time zero wells in the reference plate followed by a 10 minutes incubation and luminescence reading at 0.1 ms, using the PHERAstar FS microplate reader (BMG Labtech).
After 72 h incubation, the treated plates were measured in the same way as the day 0 plate mentioned above.

SUDHL5 [2] = experiment: Induction of cytotoxicity (CellTiter-Glo, 5 h), SUDHL5
SUDHL5 [3] = experiment: Induction of caspase-3/7 activity (Caspase-Glo 3/7), SUDHL5; type: cell-based; settings: caspase-3/7 induction, SUDHL5 cells, 3 h treatment, median
Outline: (§2)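 Caspase-Glo 3/7 luminescence, 3 h compound exposure, 37 °C, humidified. Minus medium-only blank. EC50 fit: C0=1, plateau = reference max induction.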

SUDHL10 [4] = experiment: Induction of caspase-3/7 activity (Caspase-Glo 3/7), SUDHL10; type: cell-based; settings: caspase-3/7 induction, SUDHL10 cells, 3 h treatment, median
Outline: as §2

SUDHL10 [5] = experiment: Induction of cytotoxicity (CellTiter-Glo, 5 h), SUDHL10
SUDHL10 [6] = experiment: Anti-proliferative effect (CellTiter-Glo, 72 h), SUDHL10; type: cell-based; settings: SUDHL10 cells, antiproliferation, 72 h incubation, median, read-out: Antiproli SUDHL10 [M] (median)
Outline: as §1

MCL-1 = MCL-1 (Homo sapiens, UniProt Q07820); experiment: Protein-protein interaction assay MCL-1/Noxa BH3 peptide (MCL-1 assay), TR-FRET; type: binding; settings: MBP-MCL-1 / Noxa BH3-derived peptide, median
Outline: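 Displacement of the biotinylated Noxa BH3 peptide from MBP-tagged human MCL-1 (1 nM) is detected by time-resolved FRET. Compounds are tested in duplicate across eleven concentrations up to 20 μM, incubated 1 h at 22 °C and overnight at 4 °C, and IC50 is fitted with a four-parameter equation.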

A2780 = experiment: Anti-proliferative effect (CellTiter-Glo, 72 h), A2780; type: cell-based; settings: A2780 cells, median, read-out: IC50 antiproliferation assay A2780 [M] (median)
Outline: as §1

[7] = Homo sapiens, SU-DHL-5, 5 h, read-out: Cytotox SUDHL5 [M] (median), SUDHL5 cells, cytotoxicity induction, CellTiter-Glo, 5 h incubation, median
[8] = Homo sapiens, SU-DHL10, 5 h, read-out: Cytotox SUDHL10 [M] (median), SUDHL10 cells, cytotoxicity induction, CellTiter-Glo, 5 h incubation, median
[9] = read-out: Cytotox SUDHL5 [M] (median), SUDHL5 cells, cytotoxicity induction, CellTiter-Glo, 5 h incubation, median
[10] = read-out: Cytotox SUDHL10 [M] (median), SUDHL10 cells, cytotoxicity induction, CellTiter-Glo, 5 h incubation, median

Sequence of MCL-1 (Q07820 whole entry): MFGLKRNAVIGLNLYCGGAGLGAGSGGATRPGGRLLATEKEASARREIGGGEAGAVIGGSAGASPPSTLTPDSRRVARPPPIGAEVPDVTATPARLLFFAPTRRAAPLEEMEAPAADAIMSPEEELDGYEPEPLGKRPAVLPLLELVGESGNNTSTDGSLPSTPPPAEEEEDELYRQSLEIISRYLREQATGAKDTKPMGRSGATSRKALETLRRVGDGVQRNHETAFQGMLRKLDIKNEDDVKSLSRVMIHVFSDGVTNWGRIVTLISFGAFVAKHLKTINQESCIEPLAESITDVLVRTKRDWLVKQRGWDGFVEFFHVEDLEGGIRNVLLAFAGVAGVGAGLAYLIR

SMILES	IC50 (SUDHL5 [1]; Homo sapiens, SU-DHL-5, 72 h)	EC50 (SUDHL5 [3]; Homo sapiens, SU-DHL-5, 3 h)	EC50 (SUDHL10 [4]; Homo sapiens, SU-DHL10, 3 h)	IC50 (SUDHL10 [6]; Homo sapiens, SU-DHL10, 72 h)	IC50 (MCL-1)	IC50 (A2780; Homo sapiens, A2780, 72 h)	IC50 (SUDHL5 [1])	EC50 (SUDHL5 [3])	EC50 (SUDHL10 [4])	IC50 (A2780)	IC50 (SUDHL10 [6])	IC50 (OPM2; Homo sapiens, OPM-2, 72 h)	IC50 (SUDHL5 [2]; [7])	IC50 (SUDHL10 [5]; [8])	IC50 (SUDHL5 [2]; [9])	IC50 (OPM2)	IC50 (SUDHL10 [5]; [10])
Cn1nc(CN2CCOCC2)c2c1COCCCn1c(C(=O)O)c(CCCOc3cccc4ccccc34)c3cccc-2c31 (racemic) [Example 138, (rac)-9-methyl-11-(morpholin-4-ylmethyl)-1-[3-(naphthalen-1-yloxy)propyl]-5,6,8,9-tetrahydro-4H-pyrazolo[4′,3′:8,9][1,5]oxazecino[7,6,5-hi]indole-2-carboxylic Acid]	–	11.1 µM	> 33 µM	1.16e-05 M	0.0135 µM	> 3.3e-05 M	–	–	–	–	–	> 3.3e-05 M	1.13e-05 M	> 3.3e-05 M	–	–	–
Cc1c2c(nn1CCN1CCOCC1)COCCCCn1c(C(=O)O)c(CCCOc3cccc4ccccc34)c3cccc-2c31 (single isomer, unassigned; enantiomer 2) [Example 055, 3-methyl-2-[2-(morpholin-4-yl)ethyl]-7-[3-(naphthalen-1-yloxy)propyl]-2,10,11,12,13,15-hexahydropyrazolo[4′,3′:9,10][1,6]oxazacycloundecino[8,7,6-hi]indole-8-carboxylic acid-N-ethylethanamine Salt (Enantiomer 2)]	–	–	–	–	0.041 µM	–	–	> 33 µM	> 33 µM	> 3.3e-05 M	1.17e-05 M	–	–	–	> 3.3e-05 M	> 3.3e-05 M	> 3.3e-05 M
COCCn1nc2c(c1CN1CCOCC1)-c1cccc3c(CCCOc4cccc5ccccc45)c(C(=O)O)n(c13)CCCN(C)C2 (single isomer, unassigned; enantiomer 2) [Example 058, 10-(2-methoxyethyl)-7-methyl-11-(morpholin-4-ylmethyl)-1-[3-(naphthalen-1-yloxy)propyl]-4,5,6,7,8,10-hexahydropyrazolo[3′,4′:7,8][1,5]diazecino[9,10,1-hi]indole-2-carboxylic Acid (Enantiomer 2)]	–	–	–	–	0.116 µM	–	–	> 33 µM	> 33 µM	> 3.3e-05 M	2.05e-05 M	–	–	–	> 3.3e-05 M	> 3.3e-05 M	> 3.3e-05 M
CC(C)c1c2c(nn1C)CN(C)CCCn1c(C(=O)O)c(CCCOc3cccc4ccccc34)c3cccc-2c31 (single isomer, unassigned; enantiomer 2) [Example 115, 7,10-dimethyl-1-[3-(naphthalen-1-yloxy)propyl]-1-(propan-2-yl)-4,5,6,7,8,10-hexahydropyrazolo[3′,4′:7,8][1,5]diazecino[9,10,1-hi]indole-2-carboxylic Acid (Enantiomer 2)]	–	–	–	–	0.0829 µM	–	–	> 33 µM	30.5 µM	1.19e-05 M	4.86e-06 M	–	–	–	1.13e-05 M	1.9e-05 M	1.49e-05 M
COCc1nn(C)c2c1-c1cccc3c(CCCOc4cccc5ccccc45)c(C(=O)O)n(c13)CCCCOC2 (single isomer, unassigned; enantiomer 2) [Example 160, 3-(methoxymethyl)-1-methyl-7-[3-(naphthalen-1-yloxy)propyl]-1,10,11,12,13,15-hexahydropyrazolo[4′,3′:9,10][1,6]oxazacycloundecino[8,7,6-hi]indole-8-carboxylic acid-N-ethylethanamine Salt (Enantiomer 2)]	–	–	–	–	0.0208 µM	–	–	17.9 µM	> 33 µM	> 3.3e-05 M	1.49e-05 M	–	–	–	2.05e-05 M	> 3.3e-05 M	> 3.3e-05 M
CCOCc1nn(C)c2c1-c1cccc3c(CCCOc4cccc5c4CCCC5)c(C(=O)O)n(c13)CCCCOC2 (single isomer, unassigned; enantiomer 2) [Example 172, 3-(ethoxymethyl)-1-methyl-7-[3-(5,6,7,8-tetrahydronaphthalen-1-yloxy)propyl]-1,10,11,12,13,15-hexahydropyrazolo[4′,3′:9,10][1,6]oxazacycloundecino[8,7,6-hi]indole-8-carboxylic Acid (Enantiomer 2)]	–	–	–	–	0.144 µM	–	–	> 33 µM	> 33 µM	> 3.3e-05 M	1.53e-05 M	–	–	–	> 3.3e-05 M	> 3.3e-05 M	> 3.3e-05 M

Now from value to compound, other results behind:

IC50 (SUDHL5 [1]; Homo sapiens, SU-DHL-5, 72 h)	EC50 (SUDHL5 [3]; Homo sapiens, SU-DHL-5, 3 h)	EC50 (SUDHL10 [4]; Homo sapiens, SU-DHL10, 3 h)	IC50 (SUDHL10 [6]; Homo sapiens, SU-DHL10, 72 h)	IC50 (MCL-1)	IC50 (A2780; Homo sapiens, A2780, 72 h)	IC50 (SUDHL5 [1])	EC50 (SUDHL5 [3])	EC50 (SUDHL10 [4])	IC50 (A2780)	IC50 (SUDHL10 [6])	SMILES	IC50 (OPM2; Homo sapiens, OPM-2, 72 h)	IC50 (SUDHL5 [2]; [7])	IC50 (SUDHL10 [5]; [8])	IC50 (SUDHL5 [2]; [9])	IC50 (OPM2)	IC50 (SUDHL10 [5]; [10])
2.1e-05 M	> 33 µM	> 33 µM	1.13e-05 M	–	–	–	–	–	–	–	Cn1nc(COc2ccccc2)c2c1COCC=CCn1c(C(=O)O)c(CCCOc3cccc4ccccc34)c3cccc-2c31 (racemic) [Example 1-76, (rac)-(E/Z)-1-methyl-7-[3-(naphthalen-1-yloxy)propyl]-3-(phenoxymethyl)-1,10,13,15-tetrahydropyrazolo[4′,3′:9,10][1,6]oxazacycloundecino[8,7,6-hi]indole-8-carboxylic Acid]	> 3.3e-05 M	> 3.3e-05 M	> 3.3e-05 M	–	–	–
–	> 33 µM	> 33 µM	2.13e-05 M	0.0283 µM	2.55e-05 M	–	–	–	–	–	CC(C)OCc1nn(C)c2c1-c1cccc3c(CCCOc4cccc5ccccc45)c(C(=O)O)n(c13)CCCN(C)C2 (single isomer, unassigned) [Example 1-71, 7,9-dimethyl-1-[3-(naphthalen-1-yloxy)propyl]-1-[(propan-2-yloxy)methyl]-4,5,6,7,8,9-hexahydropyrazolo[3′,4′:7,8][1,5]diazecino[9,10,1-hi]indole-2-carboxylic Acid]	2.57e-05 M	–	> 3.3e-05 M	1.98e-05 M and > 3.3e-05 M	–	–
–	–	–	–	0.00593 µM	–	1.56e-05 M	30.5 µM and > 33 µM	> 33 µM	1.39e-05 M	1.12e-05 M	CC(C)OCc1nn(C)c2c1-c1cccc3c(CCCOc4cccc5ccccc45)c(C(=O)O)n(c13)CCCCN(C)C2 (single isomer, unassigned) [Example 1-75, 1,14-dimethyl-7-[3-(naphthalen-1-yloxy)propyl]-3-[(propan-2-yloxy)methyl]-10,11,12,13,14,15-hexahydro-1H-pyrazolo[3′,4′:8,9][1,6]diazacycloundecino[10,11,1-hi]indole-8-carboxylic Acid]	–	–	–	–	9.37e-06 M	1.9e-05 M and > 3.3e-05 M
–	–	–	–	0.00106 µM	–	–	0.723 µM	0.897 µM	5.32e-06 M	1.1e-06 M	CN(C)S(=O)(=O)N1CCN(c2ccc(OCc3nn(C)c4c3-c3cccc5c(CCCOc6cccc7ccccc67)c(C(=O)O)n(c35)CCCCCC4)cc2)CC1 (single isomer, unassigned; enantiomer 2) [Example 1-41, 3-({4-[4-(dimethylsulfamoyl)piperazin-1-yl]phenoxy}methyl)-1-methyl-7-[3-(naphthalen-1-yloxy)propyl]-10,11,12,13,14,15-hexahydro-1H-pyrazolo[4′,3′:4,5]azacycloundecino[3,2,1-hi]indole-8-carboxylic acid-N-ethylethanamine Salt (Enantiomer 2)]	–	–	–	7.69e-07 M	2.17e-06 M	1.52e-06 M
